Where two headings read alike, the source gives them in different places.
Key:
[1] = Sieve analysis (particle size) of solid particulate material and BMPX, USP <786>; type: physicochemical; conditions: solid particulate material; for Particle size: description in composition table
Excerpt: For example, to prepare tablets, certain excipients such as disintegrants, lubricants, glidants etc. may be added to the bonded microparticulates to further facilitate forming the tablet.

[2] = Tapped density, USP <616>; type: physicochemical; conditions: solid particulate material, description in composition table; equals tapped density of Active
Method: In addition to screen analysis, the tap density and the bulk density of the bonded microparticulates and solid particulate material were determined.

[3] = in water; description of the solid particulate material in the composition table; cited from earlier work
[4] = Solubility in water of solid particulate material (descriptive); type: physicochemical
Method: In some embodiments, the solid particulate starting material is hydrophilic or hydrophobic or lipophilic in character. Solubility of drugs is measured by the amount of solvent needed to dissolve one part of the drug at a specific temperature. For example, a drug that is very soluble needs less than one part of solvent to dissolve one part of the drug. A drug that is considered freely soluble needs 1 to 10 parts of solvent, one that is soluble needs 10 to 30 parts of solvent, one that sparingly soluble need 30 to 100 parts of solvent, one that is slightly soluble needs 100-1,000 parts and one that is practically insoluble or insoluble needs more than 10,000 parts, per part of solute.

[5] = description in composition table

| Compound | Particle size [1] | Density [2] | Solubility [3] | other results |
| --- | --- | --- | --- | --- |
| O=C([O-])O.[Na+] [Sodium Bicarbonate, reference compound] | 74 microns | Density -1.19 (High Density)- |  | retain on 200# ([1]; 200 mesh): 70.8% |
| Zinc Gluconate | Particle size- 177 microns | Density- 0.6(Medium density) |  |  |
| O=C(O)c1cccnc1 [Niacin] |  |  | Solubility- soluble in water |  |
| Fructo-Oligosaccharide | Particle size- 149 microns | Density -0.75 (High Density) |  | Solubility [4, 5]: Solubility- soluble in water |
| OC[C@@H](O)[C@H](O)[C@@H](O)CO [Xylitol-300] | Particle size- 149 microns | Density -0.83 (High Density) |  | Solubility [4, 5]: Solubility- soluble in water |
| OC[C@@H](O)[C@@H](O)[C@H](O)[C@H](O)CO [Mannitol] |  |  |  | Solubility ([4]; in water): Solubility- insoluble in water |
| OC[C@@H](O)[C@H](O)[C@@H](O)CO [Xylitol-90] |  |  |  | Solubility ([4]; in water): Solubility- soluble in water |
| CC(C)Cc1ccc(C(C)C(=O)O)cc1 (centres unmarked) [Ibuprofen] |  |  | Solubility- in soluble in water |  |
| Sugar powder |  |  |  | Solubility ([4]; in water): Solubility- soluble in water |
| O=C([O-])[O-].[Ca+2] [Calcium Carbonate] |  | Density -1.2(High Density) |  | retain on 60mesh ([1]; 60 mesh): ≥ 90% retain on 60mesh |
| CCOC(=O)C1=C(COCCN)NC(C)=C(C(=O)OC)C1c1ccccc1Cl (centres unmarked) [Amlodipine Besylate] |  |  | Solubility- insoluble in water |  |
| COc1ccccc1OCC(O)CO (centres unmarked) [Guaifenesin] |  |  | Solubility- soluble in water |  |
